According to patent US4420484A, “Basic amino or ammonium antimicrobial agent-polyethylene glycol ester surfactant-betaine and/or amine oxide surfactant compositions and method of use therof” (Sterling Drug Inc., priority 1981, dated 1983):

Test system: Staphylococcus aureus ATCC 6538
Test: Compatibility with prototype vehicle, serial dilution test (MIC)
Format: cell-based
Conditions: Id expressed as free base, IVa-IVc expressed as cation, 16-18 h, 37° C
Method: Compatability of the antimicrobial agents of Formula Id, Formula IIa, Formula IVa (A=Br), Formula IVb (A=Br) and Formula IVc (A=Br) with a prototype vehicle of the invention was tested by a serial dilution test against Staphylococcus aureus ATCC 6538. Volumes of two milliliters were used. Dilutions were in tryptose-phosphate broth. Incubation was for 16-18 hours at 37° C. Growth was verified with 2,3,5-triphenyltetrazoliumchloride. The inoculum was 1.8×10^5 viable cells per tube. There follows the formula of the prototype vehicle. […]

SMILES	Minimum Inhibitory Concentration (MIC) (added vehicle 0 μg/ml)	Minimum Inhibitory Concentration (MIC) (added vehicle 15.6 μg/ml)	Minimum Inhibitory Concentration (MIC) (added vehicle 31.2 μg/ml)	Minimum Inhibitory Concentration (MIC) (added vehicle 62.5 μg/ml)	Minimum Inhibitory Concentration (MIC) (added vehicle 125.0 μg/ml)	Minimum Inhibitory Concentration (MIC) (added vehicle 250.0 μg/ml)	Minimum Inhibitory Concentration (MIC) (added vehicle 500.0 μg/ml)	Minimum Inhibitory Concentration (MIC) (added vehicle 1000.0 μg/ml)	Minimum Inhibitory Concentration (MIC) (added vehicle 2000.0 μg/ml)	Minimum Inhibitory Concentration (MIC) (added vehicle 4000.0 μg/ml)	Minimum Inhibitory Concentration (MIC) (added vehicle 8000.0 μg/ml)
CCCCC(CC)CN=c1ccn(CCCCCCCCCCCCn2ccc(=NCC(CC)CCCC)cc2)cc1 (stereo not shown) [Compound of Formula IVc]	0.25 µg/mL	0.25 µg/mL	0.25 µg/mL	0.25 µg/mL	0.125 µg/mL	0.0625 µg/mL	0.125 µg/mL	0.125 µg/mL	0.125 µg/mL	0.25 µg/mL	0.25 µg/mL
CCCCCCCCN=c1ccn(CCCCCCCCCCn2ccc(=NCCCCCCCC)cc2)cc1 [Compound of Formula IVb]	0.5 µg/mL	0.5 µg/mL	0.5 µg/mL	0.5 µg/mL	0.5 µg/mL	0.25 µg/mL	0.125 µg/mL	0.125 µg/mL	0.125 µg/mL	0.25 µg/mL	0.25 µg/mL
CCCCCCCCCCCCCC[N+](C)(C)Cc1ccccc1 [Compound of Formula IIa, benzalkonium chloride, reference compound]	0.5 µg/mL	0.5 µg/mL	0.5 µg/mL	0.5 µg/mL	0.5 µg/mL	0.5 µg/mL	0.5 µg/mL	1.0 µg/mL	1.0 µg/mL	1.95 µg/mL	1.95 µg/mL
CCCCCCCNC(=N)NC(=N)NCCCCCCNC(=N)NC(=N)NCCCCCCC [Compound of Formula Id]	0.25 µg/mL	0.25 µg/mL	0.25 µg/mL	0.25 µg/mL	0.25 µg/mL	0.25 µg/mL	0.25 µg/mL	0.25 µg/mL	0.50 µg/mL	0.50 µg/mL	0.50 µg/mL
CCCCCCCN=c1ccn(CCCCCCCCCCCCn2ccc(=NCCCCCCC)cc2)cc1 [Compound of Formula IVa]	0.39 µg/mL	0.195 µg/mL	0.39 µg/mL	0.39 µg/mL	0.10 µg/mL	0.10 µg/mL	0.10 µg/mL	0.195 µg/mL	0.10 µg/mL	0.195 µg/mL	0.10 µg/mL
